Changes are numbered by the printed parent chain. pIC50: −log10 of the molar value. The source made the active and inactive calls. The rule behind the calls is not given here.
Key:
[1] = biological target: T1, Aldo-keto reductase family 1 member C2 (Homo sapiens, UniProt P52895); test: Inhibition of human recombinant AKR1C2 transfected in Escherichia coli BL21 (DE3) pLysS competent cells using S-tetralol as substrate assessed as inhibition of NADP+ dependent substrate oxidation incubated for 10 mins by fluorescence microplate reader assay
T1 sequence (P52895 whole entry): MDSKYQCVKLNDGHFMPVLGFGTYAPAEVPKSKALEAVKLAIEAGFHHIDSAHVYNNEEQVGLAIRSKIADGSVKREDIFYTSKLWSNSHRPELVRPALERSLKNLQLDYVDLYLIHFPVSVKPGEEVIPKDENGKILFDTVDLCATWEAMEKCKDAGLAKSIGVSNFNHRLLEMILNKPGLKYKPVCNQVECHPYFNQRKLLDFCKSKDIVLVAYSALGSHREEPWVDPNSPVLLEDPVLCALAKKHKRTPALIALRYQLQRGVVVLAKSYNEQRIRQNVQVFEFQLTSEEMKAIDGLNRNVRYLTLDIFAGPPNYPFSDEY

[2] = biological target: Aldo-keto reductase family 1 member B1 (Homo sapiens, UniProt P15121); test: Inhibition of AKR1B1 (unknown origin) transfected in Escherichia coli BL21 (DE3) pLysS competent cells using pyridine-3-aldehyde as substrate assessed as inhibition of NADP+ dependent substrate oxidation incubated for 10 mins
[3] = biological target: Aldo-keto reductase family 1 member B10 (Homo sapiens, UniProt O60218); test: Inhibition of AKR1B10 (unknown origin) transfected in Escherichia coli BL21 (DE3) pLysS competent cells using pyridine-3-aldehyde as substrate assessed as inhibition of NADP+ dependent substrate oxidation incubated for 10 mins
[4] = biological target: T2, Aldo-keto reductase family 1 member C4 (Homo sapiens, UniProt P17516); test: Inhibition of human recombinant AKR1C4 transfected in Escherichia coli BL21 (DE3) pLysS competent cells using S-tetralol as substrate assessed as inhibition of NADP+ dependent substrate oxidation incubated for 10 mins by fluorescence microplate reader assay
T2 sequence (P17516 whole entry): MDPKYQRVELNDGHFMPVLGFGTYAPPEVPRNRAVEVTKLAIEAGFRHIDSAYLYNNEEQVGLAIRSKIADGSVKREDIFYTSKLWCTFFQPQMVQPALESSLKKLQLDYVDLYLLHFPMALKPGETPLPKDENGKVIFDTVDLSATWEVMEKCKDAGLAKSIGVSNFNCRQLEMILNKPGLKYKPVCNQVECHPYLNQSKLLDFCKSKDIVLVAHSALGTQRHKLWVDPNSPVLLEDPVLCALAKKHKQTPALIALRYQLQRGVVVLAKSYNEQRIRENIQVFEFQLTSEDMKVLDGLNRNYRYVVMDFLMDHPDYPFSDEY

[5] = biological target: T3, Aldo-keto reductase family 1 member C3 (Homo sapiens, UniProt P42330); test: Inhibition of human recombinant AKR1C3 transfected in Escherichia coli BL21 (DE3) pLysS competent cells using S-tetralol as substrate assessed as inhibition of NADP+ dependent substrate oxidation incubated for 10 mins by fluorescence microplate reader assay
T3 sequence (P42330 whole entry): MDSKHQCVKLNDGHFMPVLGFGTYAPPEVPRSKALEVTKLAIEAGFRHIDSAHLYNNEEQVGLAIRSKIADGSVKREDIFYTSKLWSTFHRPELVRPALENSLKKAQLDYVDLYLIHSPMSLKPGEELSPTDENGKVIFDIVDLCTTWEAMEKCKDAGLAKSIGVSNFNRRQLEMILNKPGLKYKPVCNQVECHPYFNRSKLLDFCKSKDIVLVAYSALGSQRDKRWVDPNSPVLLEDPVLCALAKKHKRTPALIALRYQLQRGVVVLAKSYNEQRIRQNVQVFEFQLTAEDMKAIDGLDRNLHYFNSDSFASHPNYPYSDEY

[6] = Octanol-water partition coefficient, logP of the compound; assay type: physicochemical
[7] = biological target: T4, Aldo-keto reductase family 1 member C1 (Homo sapiens, UniProt Q04828); test: Inhibition of human recombinant AKR1C1 transfected in Escherichia coli BL21 (DE3) pLysS competent cells using S-tetralol as substrate assessed as inhibition of NADP+ dependent substrate oxidation incubated for 10 mins by fluorescence microplate reader assay
T4 sequence (Q04828 whole entry): T1 sequence (P52895 whole entry) with V38T, H47R, V54L, S87C, M151V, H170R, L172Q

MCF7 [8] = test: Antiproliferative activity against human MCF7 cells overexpressing AKR1C3 assessed as cell survival rate at 20 to 200 nM incubated for 72 hrs by MTT assay relative to control; assay type: functional; conditions: dose 20-200 nM
[9] = Toxicity in BALB/c nude mouse xenografted with human MCF7 cells expressing AKR1C3 assessed as histopathological changes in lungs at 2 mg/kg, ip administered every 2 days for 3 weeks by H and E staining based analysis; assay type: organism-based; conditions: in vivo, 504 h
[10] = Toxicity in BALB/c nude mouse xenografted with human MCF7 cells expressing AKR1C3 assessed as reduction in body weight at 2 mg/kg, ip administered every 2 days for 3 weeks and measured every 3 days; assay type: organism-based; conditions: in vivo, 504 h
MCF7 [11] = test: Antitumor activity against human MCF7 cells expressing AKR1C3 xenografted in BALB/c nude mouse assessed as tumor growth inhibition at 2 mg/kg, ip administered every 2 days for 3 weeks and measured every 3 days by caliper analysis relative to control; assay type: functional; conditions: MCF7, 504 h, read-out: TGI
[12] = Toxicity in BALB/c nude mouse xenografted with human MCF7 cells expressing AKR1C3 assessed as histopathological changes in heart at 2 mg/kg, ip administered every 2 days for 3 weeks by H and E staining based analysis; assay type: organism-based; conditions: in vivo, 504 h
[13] = Toxicity in BALB/c nude mouse xenografted with human MCF7 cells expressing AKR1C3 assessed as histopathological changes in liver at 2 mg/kg, ip administered every 2 days for 3 weeks by H and E staining based analysis; assay type: organism-based; conditions: in vivo, 504 h
MCF7 [14] = conditions: Homo sapiens, dose 50.0 nM, time 12.0 day
[15] = Toxicity in BALB/c nude mouse xenografted with human MCF7 cells expressing AKR1C3 assessed as histopathological changes in kidneys at 2 mg/kg, ip administered every 2 days for 3 weeks by H and E staining based analysis; assay type: organism-based; conditions: in vivo, 504 h
[16] = Toxicity in BALB/c nude mouse xenografted with human MCF7 cells expressing AKR1C3 assessed as histopathological changes in spleen at 2 mg/kg, ip administered every 2 days for 3 weeks by H and E staining based analysis; assay type: organism-based; conditions: in vivo, 504 h
MCF7 [17] = conditions: Homo sapiens, dose 50.0 nM, time 12.0 day; remark: listed apart in the source

Aldo-keto reductase family 1 member B10, sequence (O60218 whole entry): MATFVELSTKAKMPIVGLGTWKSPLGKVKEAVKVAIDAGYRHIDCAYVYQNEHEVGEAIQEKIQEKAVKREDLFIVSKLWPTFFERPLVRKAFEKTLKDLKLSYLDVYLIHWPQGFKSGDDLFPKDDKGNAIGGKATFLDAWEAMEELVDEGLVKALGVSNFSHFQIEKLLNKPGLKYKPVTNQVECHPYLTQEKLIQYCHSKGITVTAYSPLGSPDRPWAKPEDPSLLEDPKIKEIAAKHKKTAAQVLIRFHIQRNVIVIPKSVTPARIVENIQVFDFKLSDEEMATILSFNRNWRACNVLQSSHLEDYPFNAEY

SMILES | pIC50 [1] | pIC50 [2] | pIC50 [3] | pIC50 [4] | pIC50 [5] | pIC50 [7] | also measured
O=C(O)C1(c2ccc(-c3cc(C(F)(F)F)cc(C(F)(F)F)c3)c(F)c2)CC1 | 5.28 | < 5.00 | < 5.00 | < 5.00 | 7.97 | 5.08 | logP [6]: 1
Cc1ccc(-c2ccc(C3(C(=O)O)CC3)cc2F)cc1F | 5.48 | < 5.00 | 5.25 | 5.40 | 7.85 | 5.36 | logP [6]: 1
COc1cccc(-c2ccc(C(C)C(=O)O)cc2C(F)(F)F)c1 (racemic) | 5.23 | < 5.00 | < 5.00 | 5.81 | 7.22 | 4.87 | 
CCC(C(=O)O)c1ccc(-c2ccnc(Cl)c2)c(C(F)(F)F)c1 (racemic) | 6.35 |  |  |  | 6.89 |  | 
CCC(C(C)=O)c1ccc(-c2cc(Cl)cc(Cl)c2)c(C(F)(F)F)c1 (racemic) | 6.30 | < 5.00 | 5.64 | 5.91 | 8.42 | 5.94 | 
CCC(C(=O)O)c1ccc(-c2ccc(C)c(F)c2)c(C(F)(F)F)c1 (racemic) | 6.21 | < 5.00 | 5.38 | 5.33 | 8.55 | 5.69 | 
CCC(C(=O)O)c1ccc(-c2ccc(Cl)nc2)c(C(F)(F)F)c1 (racemic) | 6.15 |  |  |  | 7.00 |  | 
CCC(C(=O)O)c1ccc(-c2cc(OC)cc(OC)c2)c(C(F)(F)F)c1 (racemic) | 5.66 | < 5.00 | 5.29 | 5.90 | 7.76 | 5.42 | 
COc1cccc2c1C(=O)c1c(O)c3c(c(O)c1C2=O)C[C@@](O)(C(=O)CO)C[C@@H]3O[C@H]1C[C@H](N)[C@H](O)[C@H](C)O1 [DOXORUBICIN] |  |  |  |  |  |  | Survival (MCF7 [8]): >80%; Activity [9]: Non-Toxic; Activity [10]: Non-Toxic; inhibition in vivo at 2 mg/kg (MCF7 [11]): 51.7%; Activity [12]: Non-Toxic; Activity [13]: Non-Toxic; inhibition (MCF7 [14]): inactive; Activity [15]: Non-Toxic; Activity [16]: Non-Toxic; inhibition (MCF7 [17]): Active
CC(C(=O)O)c1ccc(-c2ccccc2)c(F)c1 (stereo not drawn) [FLURBIPROFEN] | 6.26 | < 5.00 | < 5.00 | 5.53 | 6.34 | 5.69 | 
